Results as given in patent US7078565B2, “Benzamide derivatives as antagonists of orexin receptors” (SmithKline Beecham plc, priority 2001, dated 2006).

How the values were obtained:
rat = assay: Rat sleep/EEG studies; format: in vivo; conditions: central administration at the onset of the normal sleep period; at the expense of paradoxical sleep and slow wave sleep 2
Description: Therefore antagonists of its receptors may be useful in the treatment of sleep disorders including insomnia.

freely-feeding rats = conditions: central administration, 4 hour time period; cited from earlier work

For “orexin-A: peptide ligand for the orexin-1 receptor, an agonist of the orexin receptors; sequence given in b81 (QPLPDCCRQKTCSCRLYELLHGAGNHAAGILTL; not fully specified; Orexin-A; UniProt O43612 34-66, looked up)”, the arousal (rat) is listed as “dose-related increase in arousal” and the “increase in food intake over control rats receiving vehicle” value (freely-feeding rats) is listed as “approximately four-fold”.
